Laboratory results from patent US20130130903A1, “Suppression of Foliar and Soilborne Pathogens” (priority 2003, published 2013).

Legend:
stripe rust = test: Glyphosate amount and timing on glyphosate resistant Macon wheat: stripe rust and yield; format: in vivo, Puccinia striiformis
Excerpt: This example describes the effect of glyphosate treatment of glyphosate resistant wheat in varying amounts and at different times. Eight different treatment regimens were applied to the hard white spring wheat variety Macon, which is susceptible to stripe rust. Macon plots were planted at the Palouse Conservation Farm near Pullman, Washington and subjected to one of the following eight treatment regimens:
Treatment 1: no herbicide treatment and manual weed control;
Treatment 2: a 16 oz./A (0.50 kg/ha of active ingredient) application of glyphosate, one-half the recommended rate of 32 oz./A (1.0 kg/ha of active ingredient), was made ‘on-label’ to glyphosate resistant wheat at the 4-5 leaf stage.
Treatment 3: a first application of glyphosate at one-half (0.50 kg/ha of active ingredient) the recommended density of 1.0 kg/ha was made to glyphosate resistant wheat at the 4-5 leaf stage according to the manufacturer's instructions. A second application of 16 oz./A (0.50 kg/ha of active ingredient) glyphosate was made once moderate stripe rust symptoms appeared (42 days following the first glyphosate application).
Treatment 4: a 16 oz./A (0.50 kg/ha of active ingredient) application of glyphosate, one-half the recommended rate, was made to glyphosate resistant wheat once moderate stripe rust symptoms appeared.
Treatment 5: a 32 oz./A (1.0 kg/ha of active ingredient) application of glyphosate, the recommended full rate, was made ‘on-label’ to glyphosate resistant wheat at the 4-5 leaf stage.
Treatment 6: a first application of 32 oz./A. (1.0 kg/ha of active ingredient) glyphosate, the recommended full rate, was made ‘on-label’ to glyphosate resistant wheat at the 4-5 leaf stage and a second application of 32 oz./A. (1.0 kg/ha) glyphosate was made once moderate stripe rust symptoms appeared.
Treatment 7: a 32 oz./A. (1.0 kg/ha of active ingredient) application of glyphosate was made to glyphosate resistant wheat once moderate stripe rust symptoms appeared. Treatment 8: a 48 oz./A. ([…] of active ingredient) application of glyphosate, 1.5 times the recommended rate, was made to glyphosate resistant plants at the 4-5 leaf stage.
With reference to Table 7, stripe rust severity is characterized with two numerical indications. The first is a number characterizing the stripe rust severity on a scale of 0-9, with 0 corresponding to no infection and 9 being a high level of spore activity and infection. The second number is a percentage of the plants in the plot infected with the rating described by the first number.

[1] = test system: Rhizoctonia solani isolate AG-8 and Gaeumannomyces graminis var. tritici (averaged over all fungal inoculation treatments); test: Field yield of spring wheat after herbicide treatment, averaged over all fungal inoculation treatments; format: in vivo; details: for Yield: glyphosate (ROUNDUP 0.63 kg/ha) on glyphosate res. wheat, Buctril/Harmony on sensitive wheat, 4-5 leaf stage
Excerpt: This example describes the response of glyphosate resistant and glyphosate sensitive spring wheat to inoculation with soil pathogens as judged by wheat yield. Inoculation simulates the green-bridge effect of dying weeds and volunteer in a standing wheat crop. The soil pathogens assessed were: Rhizoctonia solani isolate AG-8 and Gaeumannomyces graminis var. tritici. These pathogenic strains are prevalent in the Pacific Northwest and were isolated from the region. They have been maintained by the Department of Plant Pathology and USDA researchers at Washington State University.
Near isogenic lines (glyphosate resistant and glyphosate sensitive) of Westbred 926 and Bobwhite were seeded using a no-till drill at three different sites (Lind, Davenport and Pullman, Wash.).
To introduce the root pathogens into the wheat seed for distribution into the field, oat seeds, autoclaved and sterilized, were inoculated for each soilborne pathogen using isolated pathogen cultures. Oat seeds that were non-inoculated, but sterilized and autoclaved, served as a control. Following two weeks of pathogen growth, the inoculated oat seeds were dried down for 2 days and screened for potential contamination. To establish a green-bridge, a mixture of 15% barley and 20% oat inoculum seeds (by weight) were planted using a small plot no-till drill. One week after planting the introduced green-bridge, the wheat isolines were planted in rows adjacent to the barley green-bridge rows in a randomized, split-plot design, replicated in five randomized blocks. Inoculum treatment served as the main plot, and response to herbicides as the subplot factor.
This example describes the effect of herbicide treatment on spring wheat, averaged over all disease treatments, planted as described in Example 1. The appropriate herbicide was applied to each trial once the plants reached the 4-5 leaf stage with a custom built hand-pulled sprayer outfitted with a boom with a length of 16 feet with spray shields on the side to minimize drift. In this manner, an entire plot was treated at once with the appropriate herbicide rate. Entries that were resistant to glyphosate were treated with ROUNDUP® brand herbicide (0.63 kg/ha), available from Monsanto, St. Louis, Mo. Herbicide sensitive and resistant entries were treated with a common broadleaf herbicide treatment (Buctril/Harmony) or a no-spray control. Introduced green-bridge barley and any other weeds were manually removed 7-10 days after spray treatment to simulate the time required for ROUNDUP to take effect and maintained weed-free conditions to provide an accurate comparison to commercial weed management strategies needed to assess potential herbicide/disease interactions.

[2] = 16 oz (52 days) and 16 oz (94 days)
[3] = 32 oz (52 days) and 32 oz (94 days)
[4] = off-label applications made 94 days after planting

## O=C(O)CNCP(=O)(O)O [glyphosate, N-phosphonomethylglycine]
Stripe rust; 16 oz (52 days)
  Stripe Rust (96 days after planting), percentage of the plants in the plot infected with the rating: 10%
  Stripe Rust (102 days after planting), percentage of the plants in the plot infected with the rating: 30%
  Stripe Rust (102 days after planting), severity on a scale of 0-9: 7-8
  Stripe Rust (106 days after planting), percentage of the plants in the plot infected with the rating: 30%
  Stripe Rust (106 days after planting), severity on a scale of 0-9: 8
  Yield: 60.2 bu/A
Stripe rust; [2]
  Stripe Rust (96 days after planting), percentage of the plants in the plot infected with the rating: 10%
  Stripe Rust (96 days after planting), severity on a scale of 0-9: 4-5
  Stripe Rust (102 days after planting), percentage of the plants in the plot infected with the rating: 10%
  Stripe Rust (102 days after planting), severity on a scale of 0-9: 0-1
  Stripe Rust (106 days after planting), percentage of the plants in the plot infected with the rating: 10%
  Stripe Rust (106 days after planting), severity on a scale of 0-9: 2
  Yield: 68.7 bu/A
Stripe rust; 16 oz (52 days), 0 = no infection, 9 = high level of spore activity and infection
  Stripe Rust (96 days after planting), severity on a scale of 0-9: 7-8
Stripe rust; 16 oz (94 days)
  Stripe Rust (96 days after planting), percentage of the plants in the plot infected with the rating: 20%
  Stripe Rust (102 days after planting), percentage of the plants in the plot infected with the rating: 20%
  Stripe Rust (102 days after planting), severity on a scale of 0-9: 2-3
  Stripe Rust (106 days after planting), percentage of the plants in the plot infected with the rating: 15%
  Stripe Rust (106 days after planting), severity on a scale of 0-9: 2-3
  Yield: 52.7 bu/A
Stripe rust; 16 oz (94 days), once moderate stripe rust symptoms appeared
  Stripe Rust (96 days after planting), severity on a scale of 0-9: 7-8
Stripe rust; 32 oz (52 days)
  Stripe Rust (96 days after planting), percentage of the plants in the plot infected with the rating: 20%
  Stripe Rust (96 days after planting), severity on a scale of 0-9: 7-8
  Stripe Rust (102 days after planting), percentage of the plants in the plot infected with the rating: 40%
  Stripe Rust (102 days after planting), severity on a scale of 0-9: 7-8
  Stripe Rust (106 days after planting), percentage of the plants in the plot infected with the rating: 60%
  Stripe Rust (106 days after planting), severity on a scale of 0-9: 8
  Yield: 80.3 bu/A
Stripe rust; [3]
  Stripe Rust (96 days after planting), percentage of the plants in the plot infected with the rating: 5%
  Stripe Rust (96 days after planting), severity on a scale of 0-9: 9
  Stripe Rust (102 days after planting), percentage of the plants in the plot infected with the rating: 5%
  Stripe Rust (102 days after planting), severity on a scale of 0-9: 1-2
  Stripe Rust (106 days after planting), percentage of the plants in the plot infected with the rating: 10%
  Stripe Rust (106 days after planting), severity on a scale of 0-9: 3
  Yield: 74.5 bu/A
Stripe rust; 32 oz (94 days)
  Stripe Rust (96 days after planting), percentage of the plants in the plot infected with the rating: 25%
  Stripe Rust (102 days after planting), percentage of the plants in the plot infected with the rating: 20%
  Stripe Rust (102 days after planting), severity on a scale of 0-9: 0-1
  Stripe Rust (106 days after planting), percentage of the plants in the plot infected with the rating: 5%
  Stripe Rust (106 days after planting), severity on a scale of 0-9: 2
  Yield: 64.5 bu/A
Stripe rust; 32 oz (94 days), once moderate stripe rust symptoms appeared
  Stripe Rust (96 days after planting), severity on a scale of 0-9: 7-8
Stripe rust; 48 oz (52 days)
  Stripe Rust (96 days after planting), percentage of the plants in the plot infected with the rating: 2%
  Stripe Rust (96 days after planting), severity on a scale of 0-9: 7-8
  Stripe Rust (102 days after planting), percentage of the plants in the plot infected with the rating: 10%
  Stripe Rust (102 days after planting), severity on a scale of 0-9: 4-5
  Stripe Rust (106 days after planting), percentage of the plants in the plot infected with the rating: 20%
  Stripe Rust (106 days after planting), severity on a scale of 0-9: 8
  Yield: 67.8 bu/A
Stripe rust; 48 oz./A rate applied at the 4-5 leaf stage
  control of stripe rust compared to the 16 oz./A and 32 oz./A application: did the best job of controlling stripe rust
Stripe rust; [4]
  effect on plants moderately infected with stripe rust: a curative effect was observed
  formation of necrotic stripes on the leaves, time following glyphosate application: second day
Stripe rust; treatments 3 and 6, split-treatments (52 and 94 days after planting)
  control of stripe rust in the trial: best control of stripe rust
[1]; Davenport
  Yield: 28.9 bu/acre
[1]; Lind
  Yield: 14.2 bu/acre
[1]; Pullman
  Yield: 56.5 bu/acre
[1]; RoundUp Ready spring wheat, regardless of disease treatment or location
  grain produced versus glyphosate sensitive NILs treated with Buctril/Harmony Extra or the no spray control: significantly (P=0.001) more grain
[1]; Table 2, each trial
  yield of glyphosate resistant wheat versus other treatments: higher yields in each trial
